Where two headings read alike, the source gives them in different places. Ends that are not written are not given here.
Experiments:
[1] = tested on: IRP; settings: curcumin treatment; cited from earlier work
[2] = tested on: TfR; settings: curcumin treatment; cited from earlier work
[3] = tested on: ferritin; settings: curcumin treatment; cited from earlier work
[4] = tested on: ferritin mRNA; test: Polysome analysis with northern blot: ferritin mRNA translation in treated cultured cells; type: cell-based; settings: cells treated overnight with iron or iron plus desferal; FIG. 1B right panel
Method: (§1) FIG. 1A top panel is a graph showing polysome analysis with optical density as a function of percent sucrose. Total RNA is isolated from cultured cells by lysing the cells in polysome extraction buffer (15 mM Tris, pH 7.6, 0.3 M NaCl, 15 mM MgCl2 and 1% Triton X-100) containing 100 ng/ml cyclohexamide and 1 mg/ml heparin. The lysates are then layered onto a 10-50% sucrose gradient and centrifuged at 38,000 rpm for 2 hrs. The gradients are fractionated by monitoring UV absorbance at 254 nm.
(§2) FIG. 1A bottom panel is a northern blot showing Actin and Ferratin RNA. RNA was isolated from each fraction using RNeasy 96 Universal Tissue Kit (Qiagen) then loaded on a agarose gel and subjected to northern analysis with the appropriate probe. The high molecular weight fractions (6-12) represent those for which protein synthesis is occurring.
(§3) FIG. 1B are northern blots showing the indicated RNA. Cells were treated overnight with either iron oriron plus desferal to chelate iron and RNA was isolated and analyzed as described above.

[5] = tested on: actin mRNA; test: Polysome analysis with northern blot: actin mRNA translation in treated cultured cells (control); type: cell-based; settings: cells treated overnight with iron or iron plus desferal; FIG. 1B left panel
Method: as §1, §2, §3

[6] = tested on: TfR; settings: melanoma cells; cited from earlier work
[7] = tested on: melanoma cells; settings: cited from earlier work
[8] = tested on: DMT1; settings: cited from earlier work
[9] = tested on: iron uptake; settings: through reduction in IRE(+) DMT1 mRNA; cited from earlier work

## COc1cc(/C=C/C(=O)CC(=O)/C=C/c2ccc(O)c(OC)c2)ccc1O [curcumin, Curcumin]
[1]
  IRP activation: increased IRP activation
[2]
  TfR level: increase in TfR
[3]
  ferritin level: decrease in ferritin

## CC(=O)N(O)CCCCCNC(=O)CCC(=O)N(O)CCCCCNC(=O)CCC(=O)N(O)CCCCCN [desferal]
[4]
  effect on ferritin translation (polysome distribution of ferritin mRNA): inhibits translation
[5]
  effect on translation of actin mRNA: neither iron nor deseferal treatment had an effect

## [Fe] [iron]
[4]
  effect on ferritin translation (polysome distribution of ferritin mRNA): ferritin translation increases
[5]
  effect on translation of actin mRNA: neither iron nor deseferal treatment had an effect

## O=C1O[C@H]([C@@H](O)CO)C([O-])=C1O.[Na+] [sodium ascorbate, Sodium ascorbate]
[6]
  TfR level: reduction in TfR
[7]
  cell death (apoptosis): apoptosis
  intracellular iron: reduced intracellular iron

## hepcidin (DTHFPICIFCCGCCHRSKCGMCCKT; ends and bridges not checked; cysteine pairing not given here; UniProt P81172 60-84, looked up) [a naturally occurring peptide]
[8]
  DMT1 protein isoforms with or without IRE: reduces DMT1 protein isoforms containing the IRE, but not those lacking the IRE
[9]
  iron uptake: significantly reduce iron uptake
